Values quoted from earlier work in patent US20090053275A1, “Foam/spray producing compositions and dispencing system therefor” (priority 2000, published 2009).

water solubility: not water soluble
SMILES: Oc1cc(Cl)ccc1Oc1ccc(Cl)cc1Cl [triclosan]
